From PubChem BioAssay (NCI)
Where “and” joins values, the source holds several entries; their conditions need not be identical. Equal values may be shown once.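 Growth conditions: 96-well plates. Treatment: test compound, 48 hours, 5 concentrations. Analysis: linear interpolation between bracketing concentrations; unreached endpoints set to highest concentration. At the GI50, growth is halved. At the TGI there is no net growth.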

Key:
Assay in all cases: NCI tumour cell line growth inhibition, 48 h
SNB-75 CNS = test system: SNB-75 CNS
DU-145 prostate = test system: DU-145 prostate
MCF7 breast = test system: MCF7 breast
U251 CNS = test system: U251 CNS
HS 578T breast = test system: HS 578T breast
A549 NSCLC = test system: A549 NSCLC
EKVX NSCLC = test system: EKVX NSCLC
SN12C renal = test system: SN12C renal
UACC-62 melanoma = test system: UACC-62 melanoma
HT29 colon = test system: HT29 colon

Compound | GI50 (SNB-75 CNS) | TGI (SNB-75 CNS) | GI50 (DU-145 prostate) | TGI (DU-145 prostate) | GI50 (MCF7 breast) | TGI (MCF7 breast) | GI50 (U251 CNS) | TGI (U251 CNS) | GI50 (HS 578T breast) | TGI (HS 578T breast) | GI50 (A549 NSCLC) | TGI (A549 NSCLC) | GI50 (EKVX NSCLC) | TGI (EKVX NSCLC) | GI50 (SN12C renal) | TGI (SN12C renal) | GI50 (UACC-62 melanoma) | TGI (UACC-62 melanoma) | GI50 (HT29 colon) | TGI (HT29 colon)
CC/C(=C(/c1ccc(O)cc1)c1ccc(OCCN2CCCCC2)cc1)c1ccc(OC)cc1 | 10.4 µM | 23.3 µM | 4.52 µM | 18.1 µM | 0.0707 µM | 2.08 µM | 1.85 µM | 4.22 µM | 2.09 µM | 5.52 µM | 4.11 µM | 15.4 µM | 4.05 µM | 18.4 µM | 2.82 µM | 11.3 µM | 2.01 µM | 4.03 µM | 1.21 µM | 3.67 µM
CCN(CC)CCNc1cc(-c2cccc(OC(F)(F)F)c2)nc2ccc(N3CCCC3)cc12 | 1.79 µM and 1.74 µM | 4.29 µM and 5.78 µM | 1.85 µM and 2.36 µM and 3.59 µM | 4.1 µM and 5.44 µM and 12.8 µM | 1.64 µM and 1.45 µM and 1.76 µM | 3.44 µM and 2.9 µM and 3.62 µM | 1.54 µM and 1.55 µM and 1.71 µM | 3.1 µM and 2.95 µM and 3.35 µM | 1.59 µM and 1.87 µM and 2.78 µM | 3.52 µM and 4.04 µM and 13 µM | 1.71 µM and 1.73 µM and 2.55 µM | 3.35 µM and 3.29 µM and 7.3 µM | 2.14 µM and 2.29 µM and 2.49 µM | 5.82 µM and 6.24 µM and 8.91 µM | 1.69 µM and 1.53 µM and 1.89 µM | 3.37 µM and 2.98 µM and 3.86 µM | 1.81 µM and 1.82 µM and 1.79 µM | 3.47 µM and 3.28 µM and 3.51 µM | 1.7 µM and 1.6 µM and 1.76 µM | 3.47 µM and 3.33 µM and 3.73 µM
C=C(CN1CCN(c2cccc(C(F)(F)F)n2)CC1)c1ccc(C(=S)Nc2ccccc2N)cc1 | 5.71 µM | > 100 µM | 6.99 µM | > 100 µM | 2.87 µM | 14.5 µM | 3.77 µM | 38.5 µM | 3.52 µM | > 100 µM | 3.32 µM | > 100 µM | 4.47 µM | > 100 µM | 4.64 µM | > 100 µM | 2.28 µM | 6.89 µM | 3.05 µM | 18.2 µM
CC1(C)CCC(C)(C)c2c1ccc(O)c2Cc1c(O)ccc2c1C(C)(C)CCC2(C)C | – | 5.33 µM | – | 5.45 µM | – | 3.83 µM | – | 3.18 µM | – | 8.85 µM | – | 5.57 µM | – | 9.16 µM | – | 3.31 µM | – | 4.33 µM | – | 4.4 µM
S=c1nc(Cl)cc2[nH]c(Cl)cn12 | – | 13.8 µM | – | > 100 µM | – | 19.3 µM | – | > 100 µM | – | 6.34 µM | – | > 100 µM | – | 7.41 µM | – | > 100 µM | – | > 100 µM | – | 75.3 µM
COc1ccc2c(c1OC)OCC(CN(C)C)C2=O (stereo not given) | – | 52.4 µM | – | 34.5 µM | – | 27.5 µM | – | 34.1 µM | – | > 87.4 µM | – | > 63.9 µM | – | 49.9 µM | – | 34 µM | – | 32.1 µM | – | 40.1 µM
Cc1cc(O)cc(C)c1/C=C/c1cncc(-c2nn[nH]n2)c1 | > 25 µM | > 25 µM | > 25 µM | > 25 µM | > 25 µM | > 25 µM | > 25 µM | > 25 µM | > 25 µM | > 25 µM | > 25 µM | > 25 µM | > 25 µM | > 25 µM | > 25 µM | > 25 µM | > 25 µM | > 25 µM | > 25 µM | > 25 µM
C[C@H](CCCNCCCNCCCN)[C@H]1CC[C@H]2[C@@H]3[C@H](OCCCN)C[C@H]4C[C@H](OCCCN)CC[C@]4(C)[C@H]3C[C@H](OCCCN)[C@]12C | 8.49 µM | > 83.9 µM | 3.34 µM | 21.3 µM | 6.46 µM | > 26.4 µM | 2.65 µM | 19.7 µM | 0.918 µM | 12.5 µM | 2.08 µM | 18.3 µM | 5.43 µM | > 43.9 µM | 1.61 µM | 24.2 µM | 0.871 µM | 13.3 µM | 0.821 µM | 13.8 µM
COc1cc(OC)c(NC(=O)c2cc3ccccc3cc2O)cc1Cl | 1.59 µM | 15 µM | 3.72 µM | 38.2 µM | 2.51 µM | 9.08 µM | 3.22 µM | 10.5 µM | 2.72 µM | 8.95 µM | 3.38 µM | 10.5 µM | 2.22 µM | 28 µM | 2.26 µM | 7.67 µM | 2.87 µM | 14.1 µM | 4.88 µM | 30.1 µM
Cc1ncsc1-c1ccc(CNC(=O)[C@@H]2C[C@@H](O)CN2C(=O)[C@@H](NC(=O)C2(C#N)CC2)C(C)(C)C)cc1 | 33.7 µM | > 100 µM | > 100 µM | > 100 µM | > 100 µM | > 100 µM | > 100 µM | > 100 µM | 50.5 µM | > 100 µM | > 100 µM | > 100 µM | 35.2 µM | > 100 µM | > 100 µM | > 100 µM | 62.6 µM | > 100 µM | > 100 µM | > 100 µM
